The target of assay [1] is T1, purified recombinantly expressed human SSAO (Homo sapiens, UniProt Q16853).
T1 construct: made in house
T1 sequence (Q16853 1-763): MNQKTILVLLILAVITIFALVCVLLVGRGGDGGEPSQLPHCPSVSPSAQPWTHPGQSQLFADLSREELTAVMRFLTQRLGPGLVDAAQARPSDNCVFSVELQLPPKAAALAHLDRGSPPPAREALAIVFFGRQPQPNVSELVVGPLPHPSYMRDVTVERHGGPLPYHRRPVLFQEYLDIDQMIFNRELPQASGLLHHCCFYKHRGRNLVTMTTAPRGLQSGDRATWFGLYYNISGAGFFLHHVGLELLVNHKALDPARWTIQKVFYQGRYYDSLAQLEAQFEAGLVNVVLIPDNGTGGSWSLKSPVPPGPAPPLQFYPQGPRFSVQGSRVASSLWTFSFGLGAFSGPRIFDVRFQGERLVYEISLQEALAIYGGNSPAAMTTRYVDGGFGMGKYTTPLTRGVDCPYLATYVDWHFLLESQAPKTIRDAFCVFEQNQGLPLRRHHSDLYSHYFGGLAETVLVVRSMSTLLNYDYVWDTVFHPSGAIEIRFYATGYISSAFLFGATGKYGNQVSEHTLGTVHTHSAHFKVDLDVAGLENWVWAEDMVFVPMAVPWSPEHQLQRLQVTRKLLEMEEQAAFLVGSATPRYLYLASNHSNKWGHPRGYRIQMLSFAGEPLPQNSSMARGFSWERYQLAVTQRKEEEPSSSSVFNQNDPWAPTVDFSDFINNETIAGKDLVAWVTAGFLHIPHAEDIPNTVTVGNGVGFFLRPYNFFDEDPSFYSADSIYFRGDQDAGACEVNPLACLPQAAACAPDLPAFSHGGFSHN
As to the kind of experiment: SSAO enzyme inhibition assay (benzylamine substrate; hydrogen peroxide/HRP-coupled or 14C-aldehyde detection). The assay is classed as biochemical. Conditions: SSAO inhibitory activity; recombinant human SSAO, RT. On the procedure: All primary assays were performed at RT. with purified recombinantly expressed human SSAO. Enzyme was prepared essentially as described in Öhman et al. (Protein Expression and Purification 46 (2006) 321-331). In addition, secondary- and selectivity assays were performed using SSAO prepared from various tissues or purified rat recombinant SSAO. The enzyme activity was assayed with benzylamine as substrate by measuring either benzaldehyde production, using ^14C-labeled substrate, or by utilizing the production of hydrogen peroxide in a horseradish peroxidase (HRP) coupled reaction. Briefly, test compounds were dissolved in dimethyl sulfoxide (DMSO) to a concentration of 10 mM. Dose-response measurements were assayed by either creating 1:10 serial dilutions in DMSO to produce a 7 point curve or by making 1:3 serial dilutions in DMSO to produce 11 point curves. The top concentrations were adjusted depending on the potency of the compounds and subsequent dilution in reaction buffer yielded a final DMSO concentration ≤2%.
In a horseradish peroxidase (HRP) coupled reaction, hydrogen peroxide oxidation of 10-acetyl-3,7-dihydroxyphenoxazine produced resorufin, which is a highly fluorescent compound (Zhout and Panchuk-Voloshina. Analytical Biochemistry 253 (1997) 169-174; Amplex® Red Hydrogen Peroxide/peroxidase Assay kit, Invitrogen A22188). Enzyme and compounds in 50 mM sodium phosphate, pH 7.4 were set to pre-incubate in flat-bottomed microtiter plates for approximately 15 min before initiating the reaction by addition of a mixture of HRP, benzylamine and Amplex reagent. Benzylamine concentration was fixed at a concentration corresponding to the Michaelis constant, determined using standard procedures. Fluorescence intensity was then measured at several time points during 1-2 h, exciting at 544 nm and reading the emission at 590 nm. For the human SSAO assay final concentrations of the reagents in the assay wells were: SSAO enzyme 1 ug/mL, benzylamine 100 uM, Amplex reagent 20 uM, HRP 0.1 U/mL and varying concentrations of test compound. The inhibition was measured as % decrease of the signal compared to a control without inhibitor (only diluted DMSO). The background signal from a sample containing no SSAO enzyme was subtracted from all data points. Data was fitted to a four parameter logistic model and IC50 values were calculated using the GraphPad Prism 4 or XLfit 4 programs.
SSAO activity was assayed using […] benzylamine and analysed by measuring radioactive benzaldehyde. In a white 96-well optiplate (Packard), 20 uL of diluted test compound was pre-incubated at RT with 20 uL SSAO enzyme for approximately 15 min with continuous agitation. All dilutions were made with PBS. The reaction was initiated by adding 20 uL of the benzylamine substrate solution containing Benzylamine hydrochloride (CFA589, GE Healthcare). The plate was incubated for 1 h as above after which the reaction was stopped by acidification (10 uL 1M aq HCl). Then 90 uL Micro Scint-E solution (Perkin-Elmer) was added to each well and the plate was continuously mixed for 15 min. Phase separation occurred instantly and activity was read in a Topcount scintillation counter (Perkin-Elmer). In the final reaction well, the human recombinant SSAO concentration was 10 ug/mL. In order to optimize sensitivity, the substrate concentration was decreased as compared to the HRP coupled assay in order to get a higher fraction of radioactive product. In the human SSAO assay, benzylamine concentration was 40 uM (0.2uCi/mL). Data was analysed as above.

The target of assay [2] is T2, human ether a go-go related gene (hERG) K+ channel (Homo sapiens, UniProt Q12809).
T2 construct: Chinese Hamster Lung cell line stably expressing the full length hERG channel; expressed in transfected cells; host or cells: Chinese Hamster Lung cell line
T2 sequence (Q12809 whole entry): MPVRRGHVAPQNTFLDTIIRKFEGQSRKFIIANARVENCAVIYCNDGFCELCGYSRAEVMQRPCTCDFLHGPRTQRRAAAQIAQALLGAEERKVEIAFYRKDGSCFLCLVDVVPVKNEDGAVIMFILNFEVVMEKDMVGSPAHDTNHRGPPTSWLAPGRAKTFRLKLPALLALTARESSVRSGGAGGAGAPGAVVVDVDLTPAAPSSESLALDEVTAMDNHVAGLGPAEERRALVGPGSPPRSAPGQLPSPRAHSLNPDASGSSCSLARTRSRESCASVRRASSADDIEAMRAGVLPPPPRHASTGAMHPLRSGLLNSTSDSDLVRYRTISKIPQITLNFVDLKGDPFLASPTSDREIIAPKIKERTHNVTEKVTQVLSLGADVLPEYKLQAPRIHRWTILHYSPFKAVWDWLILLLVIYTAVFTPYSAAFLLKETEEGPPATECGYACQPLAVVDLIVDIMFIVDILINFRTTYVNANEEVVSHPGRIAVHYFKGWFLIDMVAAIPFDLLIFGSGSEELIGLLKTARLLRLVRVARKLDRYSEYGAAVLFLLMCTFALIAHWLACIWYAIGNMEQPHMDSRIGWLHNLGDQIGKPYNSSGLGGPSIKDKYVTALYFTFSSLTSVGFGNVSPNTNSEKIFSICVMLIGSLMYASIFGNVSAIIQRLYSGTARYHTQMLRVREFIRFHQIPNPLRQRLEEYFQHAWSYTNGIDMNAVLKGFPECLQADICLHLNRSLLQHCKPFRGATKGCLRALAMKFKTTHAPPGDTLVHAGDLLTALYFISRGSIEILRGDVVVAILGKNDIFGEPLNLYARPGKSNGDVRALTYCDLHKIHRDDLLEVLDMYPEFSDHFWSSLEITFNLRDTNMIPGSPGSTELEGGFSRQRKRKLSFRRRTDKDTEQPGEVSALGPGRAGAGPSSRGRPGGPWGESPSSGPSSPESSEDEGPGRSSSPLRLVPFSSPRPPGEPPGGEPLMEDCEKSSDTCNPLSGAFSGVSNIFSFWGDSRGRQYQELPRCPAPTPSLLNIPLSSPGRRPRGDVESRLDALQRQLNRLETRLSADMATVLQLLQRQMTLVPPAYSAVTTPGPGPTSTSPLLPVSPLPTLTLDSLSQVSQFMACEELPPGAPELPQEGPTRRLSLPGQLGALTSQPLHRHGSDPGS
As to the kind of experiment: hERG assay, IonWorks patch clamp electrophysiology. The assay is classed as cell-based. To be noted: Chinese Hamster Lung cell line stably expressing hERG; max assay concentration 11 uM. The method, then:
Compounds of the invention were tested for inhibition of the human ether a go-go related gene (hERG) K^+ channel using IonWorks patch clamp electrophysiology. 8 Point concentration-response curves were generated on two occasions using 3-fold serial dilutions from the maximum assay concentration (11 uM). Electrophysiological recordings were made from a Chinese Hamster Lung cell line stably expressing the full length hERG channel. Single cell ion currents were measured in the perforated patch clamp configuration (100 ug/mL amphoterocin) at RT using an IonWorks Quattro instrument. The internal solution contained 140 mM KCl, 1 mM MgCl2, 1 mM EGTA and 20 mM HEPES and was buffered to pH 7.3. The external solution contained 138 mM NaCl, 2.7 mM KCl, 0.9 mM CaCl2, 0.5 mM MgCl2, 8 mM Na2HPO4 and 1.5 mM KH2PO4, and was buffered to pH 7.3. Cells were clamped at a holding potential of […] for 30 s and then stepped to +40 mV for 1 s. This was followed by a hyperpolarising step of 1 s to […] to evoke the hERG tail current. This sequence was repeated 5 times at a frequency of 0.25 Hz. Currents were measured from the tail step at the 5th pulse, and referenced to the holding current. Compounds were incubated for 6-7 min prior to a second measurement of the hERG signal using an identical pulse train. A minimum of 17 cells were required for each pIC50 curve fit. A control compound (quinidine) was used (see Table 13 below).
(In general: Block of hERG is tested as a sign of cardiac risk.)

For orientation: IC50 means the concentration at which inhibition is half-maximal.

`Cc1ccc(-n2c(-c3ccc(NC4CCOCC4)nc3)nc3ccncc32)cc1` [Compound 10, 5-[3-(4-Methylphenyl)-3H-imidazo[4,5-c]pyridin-2-yl]-N-(oxan-4-yl)pyridin-2-amine]: the IC50 in assay [1] is under 50 nM; in assay [2], over 10000 nM.
In the same order, the values of `Cc1cc(N2CCOCC2)ncc1-c1nc2ccncc2n1-c1ccc(Cl)cn1` [Compound 12, 4-{5-[3-(5-Chloropyridin-2-yl)-3H-imidazo[4,5-c]pyridin-2-yl]-4-methylpyridin-2-yl}morpholine] are under 50 nM and over 10000 nM.
On the same counts, the results for `Fc1ccc(-n2c(-c3ccc(NC4CCOCC4)nc3)nc3ccncc32)cc1` [Compound 15, 5-[3-(4-Fluorophenyl)-3H-imidazo[4,5-c]pyridin-2-yl]-N-(oxan-4-yl)pyridin-2-amine] are under 50 nM and over 10000 nM.
On the same counts, the results for `Cc1ccc(-n2c(-c3ccc(NC4CC4)nc3)nc3ccncc32)cc1` [Compound 17, N-Cyclopropyl-5-[3-(4-methylphenyl)-3H-imidazo[4,5-c]pyridin-2-yl]pyridin-2-amine] are under 50 nM and over 10000 nM.
`Cc1ccc(-n2c(-c3ccc(N4CCCC4)nc3)nc3ccncc32)cn1` [Compound 18, 5-[3-(6-Methylpyridin-3-yl)-3H-imidazo[4,5-c]pyridin-2-yl]-2-(pyrrolidin-1-yl)pyridine]: the IC50 was under 50 nM in assay [1] and over 10000 nM in assay [2].
Turning to `Cc1ccc(-n2c(-c3ccc(N4CCC(F)CC4)nc3)nc3ccncc32)cn1` [Compound 19, 2-(4-Fluoropiperidin-1-yl)-5-[3-(6-methylpyridin-3-yl)-3H-imidazo[4,5-c]pyridin-2-yl]pyridine], the results for the IC50 in assay [1] and in assay [2] were under 50 nM and over 10000 nM, respectively.
On the same counts, the results for `Cc1ccc(-n2c(-c3ccc(NCCN4CCOCC4)nc3)nc3ccncc32)cc1` [Compound 21, 5-[3-(4-Methylphenyl)-3H-imidazo[4,5-c]pyridin-2-yl]-N-[2-(morpholin-4-yl)ethyl]pyridin-2-amine] are under 50 nM and over 10000 nM.
For the compound `Cc1ccc(-n2c(-c3ccc(N4CCCC4)c(F)c3)nc3ccncc32)cn1` [Compound 34, 5-{2-[3-Fluoro-4-(pyrrolidin-1-yl)phenyl]-3H-imidazo[4,5-c]pyridin-3-yl}-2-methylpyridine], in assay [1], the IC50 fell in the range of 50 to 200 nM.
The same measure, in the same setting: the result for `Cc1ccc(-n2c(-c3ccc(NC4CCOCC4)cc3)nc3ccncc32)cn1` [Compound 35, N-{4-[3-(6-Methylpyridin-3-yl)-3H-imidazo[4,5-c]pyridin-2-yl]phenyl}oxan-4-amine] reads 200 to 1200 nM; that for `Cc1ccc(-n2c(-c3ccc(N4CCCC4)cc3)nc3ccncc32)nc1` [Compound 36, 5-Methyl-2-{2-[4-(pyrrolidin-1-yl)phenyl]-3H-imidazo[4,5-c]pyridin-3-yl}pyridine], 50 to 200 nM.
The same measure, in the same setting: in the case of `Cc1ccc(-n2c(-c3ccc(N4CCC(F)CC4)cc3)nc3ccncc32)cn1` [Compound 37, 5-{2-[4-(4-Fluoropiperidin-1-yl)phenyl]-3H-imidazo[4,5-c]pyridin-3-yl}-2-methylpyridine] it was 50 to 200 nM; in that of `Clc1ccc(-n2c(-c3ccc(Cl)nc3)nc3ccncc32)cc1` [Compound 38, 2-Chloro-5-[3-(4-chlorophenyl)-3H-imidazo[4,5-c]pyridin-2-yl]pyridine], 200 to 1200 nM; in that of `Fc1ccc(-n2c(-c3ccc(Cl)nc3)nc3ccncc32)cc1` [Compound 39, 2-Chloro-5-[3-(4-fluorophenyl)-3H-imidazo[4,5-c]pyridin-2-yl]pyridine], 200 to 1200 nM.

Source of the values: patent publication US10065954B2, “Substituted imidazo[4,5-c]pyridines as SSAO inhibitors” (Proximagen Limited, priority 2014, dated 2018).
